Experimental findings from patent US20260207535A1, “CRIBLAGE INHIBITEURS USP8” (COMMISSARIAT A L'ENERGIE ATOMIQUE ET AUX ENERGIES …, priority 2022, published 2026) are described below.

By IC50 is commonly meant the concentration that inhibits the measured activity by half.

One data set addresses T1, UCH-L3 (Homo sapiens, UniProt P15374).
T1 construct: or the more distant UCH-L3 enzyme (Full length); purchased BostonBiochem E-325
T1 sequence (P15374 1-230): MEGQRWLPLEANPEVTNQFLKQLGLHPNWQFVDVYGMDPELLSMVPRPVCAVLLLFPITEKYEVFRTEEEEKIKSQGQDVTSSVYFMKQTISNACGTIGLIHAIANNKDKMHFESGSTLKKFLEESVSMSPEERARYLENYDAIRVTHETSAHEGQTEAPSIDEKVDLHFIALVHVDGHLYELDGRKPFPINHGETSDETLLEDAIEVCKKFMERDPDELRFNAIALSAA
Kind of data set: UCH-L3 inhibition assay (Ub-Rhodamine). Type of data set: biochemical. The settings on record: UCH-L3 3 nM. The protocol:
UCH-L3 (BostonBiochem ref. E-325) was used at a concentration of 3 nM in the presence of the Ub-Rhodamine. Enzymatic inhibition was monitored as for USP8 or USP2 CD.

Data set [1] addresses T2, catalytic domain of USP2 (USP2CD) (Homo sapiens, UniProt O75604).
T2 construct: The purified catalytic domain of USP2 (USP2CD, in-house purified) was used; made in house
T2 sequence (O75604 267-599 limits assumed): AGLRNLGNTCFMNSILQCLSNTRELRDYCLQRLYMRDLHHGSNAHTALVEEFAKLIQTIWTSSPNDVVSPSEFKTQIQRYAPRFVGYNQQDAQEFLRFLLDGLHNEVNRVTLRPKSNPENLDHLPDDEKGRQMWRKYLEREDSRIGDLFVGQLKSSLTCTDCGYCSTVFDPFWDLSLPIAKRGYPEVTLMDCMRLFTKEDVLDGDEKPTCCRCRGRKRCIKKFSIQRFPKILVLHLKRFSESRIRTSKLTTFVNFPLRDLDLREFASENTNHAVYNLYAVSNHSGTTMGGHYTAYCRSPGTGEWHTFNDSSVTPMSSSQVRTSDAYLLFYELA
Kind of data set: USP2 CD inhibition (Ub-Rho). The data set is classed as biochemical. The settings on record: USP2CD 16 nM. The protocol:
The purified catalytic domain of USP2 (USP2CD, in-house purified) was used at a concentration of 16 nM in the presence of the artificial substrate Ub-Rho. Inhibition assays were performed as described above.

Data set [2] addresses T3, Full length USP8 (USP8FL) (Homo sapiens, UniProt P40818).
T3 construct: purchased BostonBiochem E-520
T3 sequence (P40818 1-1118): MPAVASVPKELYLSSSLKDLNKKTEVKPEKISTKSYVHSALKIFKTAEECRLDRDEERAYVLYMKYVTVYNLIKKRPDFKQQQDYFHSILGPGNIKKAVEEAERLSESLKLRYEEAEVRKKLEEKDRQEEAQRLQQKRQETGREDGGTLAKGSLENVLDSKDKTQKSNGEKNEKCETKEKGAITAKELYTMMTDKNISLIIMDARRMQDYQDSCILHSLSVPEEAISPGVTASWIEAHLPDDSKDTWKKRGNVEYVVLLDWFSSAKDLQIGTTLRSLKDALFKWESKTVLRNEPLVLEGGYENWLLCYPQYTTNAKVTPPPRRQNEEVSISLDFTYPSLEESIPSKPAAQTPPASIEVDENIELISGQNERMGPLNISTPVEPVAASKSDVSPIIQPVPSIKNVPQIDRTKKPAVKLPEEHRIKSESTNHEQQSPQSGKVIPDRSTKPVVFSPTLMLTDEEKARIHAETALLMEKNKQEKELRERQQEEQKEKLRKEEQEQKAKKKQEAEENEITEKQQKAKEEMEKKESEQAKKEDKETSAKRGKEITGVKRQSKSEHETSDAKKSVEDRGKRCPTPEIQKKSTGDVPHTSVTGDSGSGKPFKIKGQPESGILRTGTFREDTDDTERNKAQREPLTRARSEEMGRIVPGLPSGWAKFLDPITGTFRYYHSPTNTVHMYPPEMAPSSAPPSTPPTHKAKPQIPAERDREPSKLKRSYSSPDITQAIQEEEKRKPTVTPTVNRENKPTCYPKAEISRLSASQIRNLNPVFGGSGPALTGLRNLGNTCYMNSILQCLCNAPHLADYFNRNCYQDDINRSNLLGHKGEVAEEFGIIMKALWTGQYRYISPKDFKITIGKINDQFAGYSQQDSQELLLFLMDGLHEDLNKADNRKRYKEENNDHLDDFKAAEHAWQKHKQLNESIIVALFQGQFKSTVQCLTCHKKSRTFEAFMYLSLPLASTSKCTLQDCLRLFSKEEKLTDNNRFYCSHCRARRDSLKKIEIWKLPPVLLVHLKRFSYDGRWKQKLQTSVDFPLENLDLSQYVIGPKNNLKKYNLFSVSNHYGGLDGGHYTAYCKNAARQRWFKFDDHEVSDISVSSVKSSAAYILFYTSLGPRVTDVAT
Kind of data set: USP8FL (full length USP8) enzymatic inhibition, Ub-Rhodamine 110 hydrolysis in L-cysteine buffer. Type of data set: biochemical. The protocol: USP8 FL (USP8 Full Length) was incubated at a concentration of 75 nM in the presence of Ub-Rho (UBIQUIGENT ref. 60-0117-050) at a final concentration of 0.1 μM, in conditions ensuring linearity of enzyme activity throughout the assay in a specific buffer. Compounds were added to the reaction mix at different doses just before the substrate. The enzymatic reaction kinetics were monitored by measuring fluorescence elicited by the hydrolysis of Ub-Rho over 30 min.
In this setup, an in-house purified catalytic domain of USP8 (USP8CD) was used at a concentration of 80 nM in the presence of the artificial substrate Ubiquitin-Rhodamine 110 (Ub-Rho) (ref: 60-0117-050 Ubiquigent) at a final concentration of 0.1 μM, in conditions ensuring linearity of enzyme activity throughout the assay incubation time. Enzymatic assay was performed in a Tris HCl buffer (40 mM Tris HCl pH 7.4, Ovalbumine 0.5 mg/ml, Cysteine HCl 5.5 mM). Compounds to be tested were added to the reaction mix and incubated with enzyme for 20 min, before the substrate. The enzymatic reaction kinetics were monitored by measuring fluorescence elicited by the hydrolysis of the peptidyl Ub-Rho over 30 minutes. The negative control was the solvent DMSO at 1%.
Full length USP8 (USPBFL) (BostonBiochem ref. E-520) were used at a concentration of 75 nM in the presence of a ubiquitin substrate, i.e., the Ub-Rhodamine 110 (Ub-Rho) (Ubiquigent ref. 60-0117-050) at a final concentration of 0.1 μM. Enzymatic assays were performed as described for USP8-CD except that USP-FL was used at a concentration of 75 nM. The compounds were used at a final concentration of 0.1, 1, 5, 10, 50 and 100 μM in DMSO 0.5%. The USP8 catalytic activity was monitored both before adding the substrate (TO) and after twenty minutes of incubation at room temperature (Final Time TF). The enzymatic reaction kinetics were monitored by measuring fluorescence elicited by the hydrolysis of the Ub-Rho bound over 30 minutes.

From the text for AtT-20 cells: The AtT-20 cells viability was monitored in the conditions used to follow ACTH secretion. The viability of treated cells was concomitantly evaluated using a Cell Viability Reagent (monitoring of the cells' reducing capacity) (PrestoBlue® assay, Molecular Probes) with the aim to determine non-toxic doses of cell treatment.
After the collection of the supernatant sample for the ACTH assay in the previous step, cells were supplemented with the PrestoBlue™ cell viability reagent (Invitrogen™ A13261) at 10% final volume, and re-incubated at 37° C. for 30 minutes. Fluorescence was then read with a FLUOstar OPTIMA microplate reader.

On to `Cc1cc(C(C#N)c2ccc(Cl)cc2)c(Cl)cc1NC(=O)c1cc(I)cc(I)c1O` (stereo not drawn) [Closantel, reference compound], for which the “dose-dependent viability assay, in words (FIG. 7)” value in the data set on AtT-20 cells is “less cytotoxic than niclosamide”. In addition, in the data set with AtT-20 cells (mouse, 24 h, 25 μM), the “AtT-20 cell viability (PrestoBlue assay) % of control (DMSO) at 25 μM Mean (SD)” value is on record as 104.8 (16.08) %. The “activity against UCH-L3” value at UCH-L3 is recorded as “not active”. Also, the “activity against USP2CD” value in data set [1] is reported as “active”. Further, in data set [2] (USP8 CD and FL), the “activity against USP8 (CD and FL)” value is recorded as “active”. Further, in data set [2] (USP8 FL 75 nM, Ub-Rho 0.1 μM, L-cysteine buffer, read-out: USP8FL inhbition IC50 [μM] (CI: Confidence Interval)), the IC50 stood at 12 µM.
